Results from the NIST ThermoML archive (doi:10.1016/j.fluid.2011.03.008).
± gives the expanded uncertainty stated by the source.

Legend:
[1] = for surface tension liquid-gas: Plate tensiometer; for mass density: 101.33 kPa, Liquid, Vibrating tube method
[2] = xn = mol fraction of the nth substance listed; conditions: 293.15 K; for mass density: 101 kPa, Liquid, Vibrating tube method

CCn1cc[n+](C)c1.COS(=O)(=O)[O-] [1-ethyl-3-methylimidazolium methylsulfate]
[1]
Conditions | mass density [kg/m3] | surface tension liquid-gas [mN/m]
283.15 K | 1273.4 ± 20 | 53.54 ± 0.27
288.15 K | 1270.1 ± 20 | 53.28 ± 0.27
293.15 K | 1267 ± 20 | 52.99 ± 0.27
298.15 K | 1262.9 ± 20 | 52.62 ± 0.26
303.15 K | 1259.4 ± 20 | 52.32 ± 0.26
308.15 K | 1255.8 ± 20 | 52.03 ± 0.26
313.15 K | 1252.9 ± 20 | 51.72 ± 0.26
318.15 K | 1249.9 ± 20 | 51.44 ± 0.26
323.15 K | 1246.9 ± 20 | 51.07 ± 0.26
328.15 K | 1243.5 ± 20 | 50.68 ± 0.25
333.15 K | 1240.3 ± 20 | 50.41 ± 0.25

CCn1cc[n+](C)c1.COS(=O)(=O)[O-] [1-ethyl-3-methylimidazolium methylsulfate] + CCCCO
[2], Ring tensiometer
Conditions | surface tension liquid-gas [mN/m]
x1 = 0.032 | 23.96 ± 0.02
x1 = 0.071 | 24.3 ± 0.1
x1 = 0.1 | 24.39 ± 0.02
x1 = 0.2306 | 25.51 ± 0.04
x1 = 0.3 | 26.11 ± 0.05
x1 = 0.3996 | 27.13 ± 0.06
x1 = 0.4989 | 28.16 ± 0.08
x1 = 0.5993 | 28.58 ± 0.09
x1 = 0.695 | 28.61 ± 0.1
x1 = 0.7864 | 33.18 ± 0.13
x1 = 0.9206 | 39.12 ± 0.18
x1 = 0.9628 | 43.21 ± 0.21
x1 = 1 | 52.62 ± 0.26

[2]
Conditions | mass density [kg/m3]
x1 = 0.032 | 837.1 ± 20
x1 = 0.071 | 868.3 ± 20
x1 = 0.1 | 890.3 ± 20
x1 = 0.2306 | 978.5 ± 20
x1 = 0.3 | 1017.9 ± 20
x1 = 0.3996 | 1066.8 ± 20
x1 = 0.4989 | 1109.3 ± 20
x1 = 0.5993 | 1147.1 ± 20
x1 = 0.695 | 1179.6 ± 20
x1 = 0.7864 | 1207.2 ± 20
x1 = 0.9206 | 1243.6 ± 20
x1 = 1 | 1262.9 ± 20

CCn1cc[n+](C)c1.COS(=O)(=O)[O-] [1-ethyl-3-methylimidazolium methylsulfate] + CCO
[2], Plate tensiometer
Conditions | surface tension liquid-gas [mN/m]
x1 = 0.04 | 22.75 ± 0.06
x1 = 0.0597 | 23.23 ± 0.06
x1 = 0.08 | 23.62 ± 0.06
x1 = 0.0999 | 24.08 ± 0.07
x1 = 0.2 | 26.08 ± 0.08
x1 = 0.3 | 28.59 ± 0.09
x1 = 0.4 | 30.09 ± 0.11
x1 = 0.5 | 32.19 ± 0.12
x1 = 0.5998 | 34.22 ± 0.14
x1 = 0.6993 | 38.92 ± 0.17
x1 = 0.8005 | 44.18 ± 0.2
x1 = 0.9009 | 49.23 ± 0.23
x1 = 1 | 52.62 ± 0.26

[2]
Conditions | mass density [kg/m3]
x1 = 0.04 | 839.3 ± 20
x1 = 0.0597 | 862.9 ± 20
x1 = 0.08 | 885.6 ± 20
x1 = 0.0999 | 906.5 ± 20
x1 = 0.2 | 995.1 ± 20
x1 = 0.3 | 1064.8 ± 20
x1 = 0.4 | 1113.2 ± 20
x1 = 0.5 | 1150.2 ± 20
x1 = 0.5998 | 1179.8 ± 20
x1 = 0.6993 | 1205.1 ± 20
x1 = 0.8005 | 1227.1 ± 20
x1 = 0.9009 | 1246.4 ± 20
x1 = 1 | 1262.9 ± 20

CCn1cc[n+](C)c1.COS(=O)(=O)[O-] [1-ethyl-3-methylimidazolium methylsulfate] + CO
[2], Plate tensiometer
Conditions | surface tension liquid-gas [mN/m]
x1 = 0.05 | 24.19 ± 0.06
x1 = 0.08 | 25.56 ± 0.07
x1 = 0.0995 | 26.19 ± 0.07
x1 = 0.2001 | 30.12 ± 0.09
x1 = 0.3024 | 33.16 ± 0.11
x1 = 0.4012 | 37.21 ± 0.13
x1 = 0.4971 | 40.02 ± 0.15
x1 = 0.6 | 43.02 ± 0.17
x1 = 0.7004 | 45.59 ± 0.19
x1 = 0.8003 | 48.06 ± 0.22
x1 = 0.8971 | 50.63 ± 0.24
x1 = 0.9389 | 51.59 ± 0.25
x1 = 1 | 52.62 ± 0.26

[2]
Conditions | mass density [kg/m3]
x1 = 0.05 | 883.8 ± 20
x1 = 0.08 | 928.9 ± 20
x1 = 0.0995 | 957.2 ± 20
x1 = 0.2001 | 1061.5 ± 20
x1 = 0.3024 | 1122.2 ± 20
x1 = 0.4012 | 1161.3 ± 20
x1 = 0.4971 | 1189.3 ± 20
x1 = 0.6 | 1212.1 ± 20
x1 = 0.7004 | 1228 ± 20
x1 = 0.8003 | 1242.3 ± 20
x1 = 0.8971 | 1252.6 ± 20
x1 = 0.9389 | 1256.7 ± 20
x1 = 1 | 1262.9 ± 20

CCCCO [butan-1-ol] + CCn1cc[n+](C)c1.COS(=O)(=O)[O-]
Conditions | surface tension liquid-gas [mN/m]
[2], Ring tensiometer, x2 = 0 | 23.62 ± 0.01

Conditions | mass density [kg/m3]
[2], x2 = 0 | 809.6 ± 20

CCO [ethanol] + CCn1cc[n+](C)c1.COS(=O)(=O)[O-]
Conditions | surface tension liquid-gas [mN/m]
[2], Plate tensiometer, x2 = 0 | 22 ± 1

Conditions | mass density [kg/m3]
[2], x2 = 0 | 785.7 ± 20

CO [methanol] + CCn1cc[n+](C)c1.COS(=O)(=O)[O-]
Conditions | surface tension liquid-gas [mN/m]
[2], Plate tensiometer, x2 = 0 | 21.8 ± 0.1

Conditions | mass density [kg/m3]
[2], x2 = 0 | 791.2 ± 20
